Patent US4220755A, “Fortimicin B derivatives and process for production thereof” (Abbott Laboratories, priority 1976, dated 1980)
Converted amounts (≈) assume the structure as drawn.

Key:
Escherichia coli NIHTC-2 = test: MIC, agar dilution method, pH 7.2; assay type: cell-based; conditions: Escherichia coli, NIHTC2, pH 7.2, read-out: Minimum inhibition concentration (MIC)
Protocol: (§1) Measurement was carried out according to the agar dilution method, using a medium of pH 8.0, or the Japanese Antibiotic Medicament Standard, using a medium of pH 7.2 Units are in mcg/ml.

[1] = test system: Eschericihia coli GN2411-5; test: MIC, agar dilution method, pH 7.2; assay type: cell-based; conditions: Escherichia coli, GN2411, pH 7.2, read-out: Minimum inhibition concentration (MIC)
Protocol: as §1

[2] = test system: Klebsiella pneumoniae KY4274; test: MIC, agar dilution method, pH 7.2; assay type: cell-based; conditions: Klebsiella pneumoniae, KY4274, pH 7.2, read-out: Minimum inhibition concentration (MIC)
Protocol: as §1

Proteus vulgaris JJ = test: MIC, agar dilution method, pH 7.2; assay type: cell-based; conditions: Proteus vulgaris, pH 7.2, read-out: Minimum inhibition concentration (MIC)
Protocol: as §1

[3] = test system: Pseudomonas aeruginosa BMH# 1; test: MIC, agar dilution method, pH 7.2; assay type: cell-based; conditions: Pseudomonas aeruginosa, pH 7.2, read-out: Minimum inhibition concentration (MIC)
Protocol: as §1

[4] = test system: Pseudomonas aeruginosa UCLA 4184; test: MIC, agar dilution method, pH 7.2; assay type: cell-based; conditions: Pseudomonas aeruginosa, UCLA4184, pH 7.2, read-out: Minimum inhibition concentration (MIC)
Protocol: as §1

[5] = test system: Salmonella enteritidis G-14; test: MIC, agar dilution method, pH 7.2; assay type: cell-based; conditions: Salmonella enterica, ENTERITIDIS, pH 7.2, read-out: Minimum inhibition concentration (MIC)
Protocol: as §1

Shigella sonnei ATCC9290 = test: MIC, agar dilution method, pH 7.2; assay type: cell-based; conditions: read-out: Minimum inhibition concentration (MIC)
Protocol: as §1

[6] = test system: Staphylococcus aureus 209-P; test: MIC, agar dilution method, pH 7.2; assay type: cell-based; conditions: Staphylococcus aureus, 209P, pH 7.2, read-out: Minimum inhibition concentration (MIC)
Protocol: as §1

[7] = test system: Staphylococcus aureus Smith (A); test: MIC, agar dilution method, pH 7.2; assay type: cell-based; conditions: Staphylococcus aureus, pH 7.2, read-out: Minimum inhibition concentration (MIC)
Protocol: as §1

[8] = test system: Staphylococcus a ureus 226; test: MIC, agar dilution method, pH 7.2; assay type: cell-based, Staphylococcus aureus; conditions: pH 7.2, read-out: Minimum inhibition concentration (MIC)
Protocol: as §1

Eschericihia coli 3100 = test: MIC, agar dilution method, pH 7.2; assay type: cell-based, Escherichia coli; conditions: Escherichia coli, 3100, pH 7.2, read-out: Minimum inhibition concentration (MIC)
Protocol: as §1

[9] = test system: Escherichia coli 57R/W677; test: MIC, agar dilution method, pH 7.2; assay type: cell-based; conditions: 57R/W677, pH 7.2, read-out: Minimum inhibition concentration (MIC)
Protocol: as §1
(§2) **1: gentamicin, producing adenylsynthetase.

Escherichia coli 76-2 = test: MIC, agar dilution method, pH 7.2; assay type: cell-based; conditions: Escherichia coli, 762, pH 7.2, read-out: Minimum inhibition concentration (MIC)
Protocol: as §1, §2

[10] = test system: Escherichia coli R12 Z-338; test: MIC, agar dilution method, pH 7.2; assay type: cell-based; conditions: R12Z338, pH 7.2, read-out: Minimum inhibition concentration (MIC)
Protocol: as §1, §2

[11] = test system: Klebsiella pneumoniae 3020 Y-60; test: MIC, agar dilution method, pH 7.2; assay type: cell-based; conditions: Klebsiella pneumoniae, 3020Y60, pH 7.2, read-out: Minimum inhibition concentration (MIC)
Protocol: as §1, §2

[12] = test system: Escherichia coli R18 KY8321; test: MIC, agar dilution method, pH 7.2; assay type: cell-based; conditions: R18KY8321, E. coli R18 KY8321, 2**: gentamicin, producing adenylsynthetase and neomycin phosphotransferase type II, read-out: Minimum inhibition concentration (MIC)
Protocol: as §1
2: gentamicin, producing adenylsynthetase and neomycin phosphotransferase

[13] = test system: Escherichia coli R17 Z343; test: MIC, agar dilution method, pH 7.2; assay type: cell-based; conditions: R17Z343, pH 7.2, read-out: Minimum inhibition concentration (MIC)
Protocol: as §1
(§3) 3: kanamycin, producing acetyltransferase.

[14] = test system: Pseudomonas aeruginosa R9 KY8516; test: MIC, agar dilution method, pH 7.2; assay type: cell-based; conditions: R9KY8516, pH 7.2, read-out: Minimum inhibition concentration (MIC)
Protocol: as §1, §3

Serratia marcescens 1065 = test: MIC, agar dilution method, pH 7.2; assay type: cell-based; conditions: Serratia marcescens, 1065, pH 7.2, read-out: Minimum inhibition concentration (MIC)
Protocol: as §1, §3

[15] = test system: Escherichia coli R19 KY8348; test: MIC, agar dilution method, pH 7.2; assay type: cell-based; conditions: R19KY8348, pH 7.2, read-out: Minimum inhibition concentration (MIC)
Protocol: as §1
(§4) 4: gentamicin, producing acetyltransferase type I.

[16] = test system: Pseudomonas aeruginosa R4 KY8511; test: MIC, agar dilution method, pH 7.2; assay type: cell-based; conditions: R4KY8511, pH 7.2, read-out: Minimum inhibition concentration (MIC)
Protocol: as §1, §4

[17] = test system: Escherichia coli R20 KY8349; test: MIC, agar dilution method, pH 7.2; assay type: cell-based; conditions: R20KY8349, pH 7.2, E. coli R20 KY8349, 5**: neomycin, producing phosphotransferase type I, read-out: Minimum inhibition concentration (MIC)
Protocol: as §1
5: neomycin, producing phosphotransferase type I.

[18] = test system: Pseudomonas aeruginosa R5 KY8512; test: MIC, agar dilution method, pH 7.2; assay type: cell-based; conditions: R5KY8512, pH 7.2, read-out: Minimum inhibition concentration (MIC)
Protocol: as §1
6: neomycin, producing phosphotransferase type I and type II.

Providencia sp 164 = test: MIC, agar dilution method, pH 7.2; assay type: cell-based; conditions: Providencia, 164, pH 7.2, read-out: Minimum inhibition concentration (MIC)
Protocol: as §1
7: gentamicin, producing acetyltransferase type II.

[19] = test system: Staphylococcus aureus KY4279 ATCC6538P; test: MIC, agar dilution method, pH 8.0; assay type: cell-based; conditions: pH 8.0, Staphylococcus aureus KY4279, read-out: Minimum inhibition concentration (MIC), SA
Protocol: as §1
S.A.: Staphylococcus aureus KY4279 ATCC6538P

Bacillus subtilis KY4273 = test: MIC, agar dilution method, pH 8.0; assay type: cell-based; conditions: pH 8.0; Bacillus subtilis KY4273; read-out: Minimum inhibition concentration (MIC), BS
Protocol: as §1
B.S.: Bacillus subtilis KY4273

[20] = test system: Salmonella typhosa KY4278 ATCC9992; test: MIC, agar dilution method, pH 8.0; assay type: cell-based; conditions: Salmonella enterica, pH 8, read-out: Minimum inhibition concentration (MIC), ST
Protocol: as §1
S.T.: Salmonella typhosa KY4278 ATCC9992

[21] = test system: Klebsiella pneumoniae KY4275 ATCC10031; test: MIC, agar dilution method, pH 8.0; assay type: cell-based; conditions: Klebsiella pneumoniae, ATCC10031, pH 8, read-out: Minimum inhibition concentration (MIC), KP
Protocol: as §1
K.P.: Klebsiella pneumoniae KY4275 ATCC10031.

## CO[C@H]1[C@@H](O)[C@H](N)[C@@H](O[C@H]2O[C@H]([C@H](C)N)CC[C@H]2N)[C@H](O)[C@@H]1N(C)C(=O)CN [Compound 2, 4-N-glycylfortimicin B, reference compound]
Escherichia coli NIHTC-2
  MIC: 3.12 µg/mL (≈ 7.69 µM)
[1]
  MIC: 6.25 µg/mL (≈ 15.4 µM)
[2]
  MIC: 3.12 µg/mL (≈ 7.69 µM)
Proteus vulgaris JJ
  MIC: 3.12 µg/mL (≈ 7.69 µM)
[3]
  MIC: 12.5 µg/mL (≈ 30.8 µM)
[4]
  MIC: 25 µg/mL (≈ 61.7 µM)
[5]
  MIC: 6.25 µg/mL (≈ 15.4 µM)
Shigella sonnei ATCC9290
  MIC: 6.25 µg/mL (≈ 15.4 µM)
[6]
  MIC: 0.78 µg/mL (≈ 1.92 µM)
[7]
  MIC: 0.78 µg/mL (≈ 1.92 µM)
[8]
  MIC: 0.78 µg/mL (≈ 1.92 µM)
Eschericihia coli 3100
  MIC: 6.25 µg/mL (≈ 15.4 µM)
[9]
  MIC: 12.5 µg/mL (≈ 30.8 µM)
Escherichia coli 76-2
  MIC: 3.12 µg/mL (≈ 7.69 µM)
[10]
  MIC: 12.5 µg/mL (≈ 30.8 µM)
[11]
  MIC: 12.5 µg/mL (≈ 30.8 µM)
[12]
  MIC: 3.12 µg/mL (≈ 7.69 µM)
[13]
  MIC: 1.56 µg/mL (≈ 3.85 µM)
[14]
  MIC: 50 µg/mL (≈ 123 µM)
Serratia marcescens 1065
  MIC: 6.25 µg/mL (≈ 15.4 µM)
[15]
  MIC: > 100 µg/mL
[16]
  MIC: > 100 µg/mL
[17]
  MIC: 3.12 µg/mL (≈ 7.69 µM)
[18]
  MIC: 12.5 µg/mL (≈ 30.8 µM)
Providencia sp 164
  MIC: 25 µg/mL (≈ 61.7 µM)
[19]
  MIC: 0.04 µg/mL (≈ 0.0986 µM)
Bacillus subtilis KY4273
  MIC: 0.04 µg/mL (≈ 0.0986 µM)
[20]
  MIC: 0.16 µg/mL (≈ 0.395 µM)
[21]
  MIC: 0.16 µg/mL (≈ 0.395 µM)
